Tests used:
[1] = Solid stability test of crystal forms (high temperature, high humidity, light radiation, accelerated conditions; appearance, content, impurities, crystal form by XRPD); format: physicochemical; conditions: for change of crystal form (XRPD detection): after the solid stability test conditions; for XPRD: crystal form found
From the text: High Performance Liquid Chromatograph (HPLC) The analytic method is as follows: [table] [table] […] The sample was placed under high temperature, high humidity and acceleration conditions. The bottle was sealed with an aluminum foil, and some small holes were pierced on the aluminum foil to ensure that the sample could fully contact with the ambient air. The sample placed under light radiation was placed upright at room temperature and open to the air. The sample was exposed to a light source, and radiated with sufficient energy prior to taking samples for detection. Samples were taken at various time points for analysis, and the detection results were compared with the initial detection results obtained at Day 0. The investigation items include appearance, content and impurities. […] The sample was placed under high temperature, high humidity and acceleration conditions. The bottle was sealed with an aluminum foil, and some small holes were pierced on the aluminum foil to ensure that the sample could fully contact with the ambient air. The sample placed under light radiation was placed upright at room temperature and open to the air. The sample was exposed to a light source, and radiated with sufficient energy prior to taking samples for detection. Samples were taken at various time points for analysis, and the detection results were compared with the initial detection results obtained at Day 0. The investigation items include appearance, content and impurities. […] Samples were taken at various time points, and the test results were compared with the initial test results obtained at Day 0. […] The investigation items include appearance, impurities, and crystal forms.

[2] = test system: Influenza virus A/Weiss/43 (H1N1) strain; test: Influenza virus cytopathy (CPE) experiment; format: cell-based
[3] = test system: Influenza A virus H1N1 (H1N1 A/WSN/33 virus); test: Influenza A virus H1N1 mouse infection model (in vivo drug efficacy); conditions: H1N1 A/WSN/33 infected BALB/c mice, 10 mg/kg oral twice a day Day 1 to Day 7, first dose 36 hr after infection
[4] = High humidity (room temperature/relative humidity 92.5%, open), Day 5
[5] = High humidity (room temperature/relative humidity 92.5%, open), Day 10
[6] = High temperature (60° C., open), Day 5
[7] = High temperature (60° C., open), Day 10
[8] = Light radiation (total illumination 1.2 × 10^6 Lux · hr), Day 5
[9] = Light radiation (total illumination 1.2 × 10^6 Lux · hr), Day 10
[10] = Acceleration test (40° C./relative humidity 75%, open), Day 5
[11] = Acceleration test (40° C./relative humidity 75%, open), Day 10
[12] = high temperature, high humidity and accelerated experiments
[13] = Acceleration test (40° C./relative humidity 75%, open), Day 30
[14] = High humidity (room temperature/relative humidity 92.5%, open), Day 30
[15] = High temperature (60° C., open), Day 30
[16] = Light radiation (total illumination 1.2 × 10^6 Lux · hr), Day 12
[17] = high temperature, high humidity, light radiation and accelerated experiments
[18] = Acceleration test (40° C./relative humidity 75%, open), Day 12
[19] = High humidity (room temperature/relative humidity 92.5%, open), Day 12
[20] = High temperature (60° C., open), Day 12

## O=C(O)[C@H]1C2CCC(CC2)[C@@H]1Nc1nc(-c2n[nH]c3ncc(F)cc23)nc(C2CC2)c1F (single isomer, unassigned) [crystal form B]
[1]; Day 0 (initial)
  Appearance: Off-white
  Content (%): 98.89%
  Total Impurities (%): 1.11%
  XPRD: Crystal form B
[1]; [4]
  Appearance: Off-white
  Content (%): 98.92%
  Total Impurities (%): 1.08%
[1]; [5]
  Appearance: Off-white
  Content (%): 98.90%
  Total Impurities (%): 1.10%
  XPRD: Crystal form B
[1]; [6]
  Appearance: Off-white
  Content (%): 98.91%
  Total Impurities (%): 1.09%
[1]; [7]
  Appearance: Off-white
  Content (%): 98.89%
  Total Impurities (%): 1.11%
  XPRD: Crystal form B
[1]; [8]
  Appearance: Off-white
[1]; [9]
  Appearance: Off-white
  Content (%): 98.03%
  Total Impurities (%): 1.97%
  XPRD: Crystal form B
[1]; accelerated experiments
  change in total impurity: relatively small change
[1]
  change of crystal form (XRPD detection): does not change
[1]; high temperature, high humidity
  change in total impurity content: almost no change

## O=C(O)[C@H]1C2CCC(CC2)[C@@H]1Nc1nc(-c2n[nH]c3ncc(F)cc23)nc(C2CC2)c1F (single isomer, unassigned) [crystal form A]
[1]; [10]
  Appearance: Off-white solid
[1]; [11]
  Appearance: Off-white solid
  Content (%): 98.36%
  Total Impurities (%): 1.64%
  XPRD: Crystal form A
[1]; Day 0 (initial)
  Appearance: Off-white solid
  Content (%): 98.51%
  Total Impurities (%): 1.49%
  XPRD: Crystal form A
[1]; [4]
  Appearance: Off-white solid
[1]; [5]
  Appearance: Off-white solid
  Content (%): 98.25%
  Total Impurities (%): 1.75%
  XPRD: Crystal form A
[1]; [6]
  Appearance: Off-white solid
[1]; [7]
  Appearance: Off-white solid
  Content (%): 98.25%
  Total Impurities (%): 1.75%
  XPRD: Crystal form A
[1]; [8]
  Appearance: Off-white solid
[1]; [9]
  Appearance: Off-white solid
  Content (%): 96.89%
  Total Impurities (%): 3.11%
  XPRD: Crystal form A
[1]
  change of crystal form (XRPD detection): does not change
[1]; [12]
  change in total impurity content: relatively small change

## O=C(O)[C@H]1C2CCC(CC2)[C@@H]1Nc1nc(-c2n[nH]c3ncc(F)cc23)nc(C2CC2)c1F [crystal form H]
[1]; [10]
  Appearance: Off-white solid
[1]; [13]
  Appearance: Off-white solid
  Total Impurities (%): 2.0%
  XPRD: Crystal form H
[1]; Day 0 (initial)
  Appearance: Off-white solid
  Total Impurities (%): 1.8%
  XPRD: Crystal form H
[1]; [4]
  Appearance: Off-white solid
[1]; [14]
  Appearance: Off-white solid
  Total Impurities (%): 1.9%
  XPRD: Crystal form H
[1]; [6]
  Appearance: Off-white solid
[1]; [15]
  Appearance: Off-white solid
  Total Impurities (%): 2.0%
  XPRD: Crystal form H
[1]; [8]
  Appearance: Off-white solid
[1]; [16]
  Appearance: Yellowish solid
  Total Impurities (%): 1.9%
  XPRD: Crystal form H
[1]
  change of crystal form (XRPD detection): does not change
[1]; [17]
  change in total impurity content: almost no change

## O=C(O)[C@H]1C2CCC(CC2)[C@@H]1Nc1nc(-c2n[nH]c3ncc(F)cc23)nc(C2CC2)c1F [crystal form G]
[1]; [10]
  Appearance: Off-white solid
[1]; [13]
  Appearance: Off-white solid
  Total Impurities (%): 0.35%
  XPRD: Crystal form G
[1]; Day 0 (initial)
  Appearance: Off-white solid
  Total Impurities (%): 0.35%
  XPRD: Crystal form G
[1]; [4]
  Appearance: Off-white solid
[1]; [14]
  Appearance: Off-white solid
  Total Impurities (%): 0.33%
  XPRD: Crystal form G
[1]; [6]
  Appearance: Off-white solid
[1]; [15]
  Appearance: Off-white solid
  Total Impurities (%): 0.42%
  XPRD: Crystal form G
[1]; [8]
  Appearance: Off-white solid
[1]; [16]
  Appearance: Yellowish solid
  Total Impurities (%): 0.54%
  XPRD: Crystal form G
[1]
  change of crystal form (XRPD detection): does not change
[1]; high humidity and accelerated experiments
  change in total impurity content: almost no change
[1]; high temperature
  change in total impurity content: relatively small change

## O=C(O)[C@H]1C2CCC(CC2)[C@@H]1Nc1nc(-c2n[nH]c3ncc(F)cc23)nc(C2CC2)c1F [crystal form D]
[1]; [10]
  Appearance: Off-white solid
[1]; [18]
  Appearance: Off-white solid
  Total Impurities (%): 3.5%
  XPRD: Crystal form D
[1]; Day 0 (initial)
  Appearance: Off-white solid
  Total Impurities (%): 3.3%
  XPRD: Crystal form D
[1]; [4]
  Appearance: Off-white solid
[1]; [19]
  Appearance: Off-white solid
  Total Impurities (%): 3.4%
  XPRD: Crystal form D
[1]; [6]
  Appearance: Off-white solid
[1]; [20]
  Appearance: Off-white solid
  Total Impurities (%): 3.3%
  XPRD: Crystal form D
[1]; [8]
  Appearance: Off-white solid
[1]; [16]
  Appearance: Off-white solid
  Total Impurities (%): 3.4%
  XPRD: Crystal form D
[1]
  change of crystal form (XRPD detection): does not change
[1]; [17]
  change in total impurity content: almost no change

## O=C(O)[C@H]1C2CCC(CC2)[C@@H]1Nc1nc(-c2n[nH]c3ncc(F)cc23)nc(C2CC2)c1F [Compound 1]
[2]; 120 h, MDCK cells, influenza virus A/Weiss/43 (H1N1), 5 days, CCK8 cell viability
  EC50: 0.013 nM
[2]; result in words
  effect in the experiment of inhibiting influenza virus replication at a cell level: positive effect
[3]; Day 9
  Rate of Weight Loss (Day 9): 4.8%
[3]; observed to Day 14
  Survival Rate (%): 100%

## O=C(O)[C@H]1C2CCC(CC2)[C@@H]1Nc1nc(-c2n[nH]c3ncc(F)cc23)nc(C2CC2)c1F [crystal form F]
[1]; [10]
  Appearance: Off-white solid
[1]; [18]
  Appearance: Off-white solid
  Total Impurities (%): 1.9%
  XPRD: Crystal form F
[1]; Day 0 (initial)
  Appearance: Off-white solid
  Total Impurities (%): 1.7%
  XPRD: Crystal form F
[1]; [4]
  Appearance: Off-white solid
[1]; [19]
  Appearance: Off-white solid
  Total Impurities (%): 1.9%
  XPRD: Crystal form F
[1]; [6]
  Appearance: Off-white solid
[1]; [20]
  Appearance: Off-white solid
  Total Impurities (%): 1.9%
  XPRD: Crystal form F
[1]; [8]
  Appearance: Off-white solid
[1]; [16]
  Appearance: Off-white solid
  Total Impurities (%): 1.8%
  XPRD: Crystal form F
[1]
  change of crystal form (XRPD detection): does not change
[1]; [12]
  change in total impurity content: almost no change

From patent US11535613B2 (GUANGDONG RAYNOVENT BIOTECH CO., LTD., priority 2018, dated 2022)
